Test results reported in article PMC9136617 (Acta Pharmaceutica Sinica. B, 2022).

Experiments:
[1] = molecular target: CYP2E1 (Homo sapiens, UniProt P05181); test: incubation with recombinant human CYP2E1, metabolites by LC–MS/MS; type: biochemical
[2] = molecular target: T1, PPARα (Homo sapiens, UniProt Q07869); test: SPR; type: binding
T1 sequence (Q07869 1-468): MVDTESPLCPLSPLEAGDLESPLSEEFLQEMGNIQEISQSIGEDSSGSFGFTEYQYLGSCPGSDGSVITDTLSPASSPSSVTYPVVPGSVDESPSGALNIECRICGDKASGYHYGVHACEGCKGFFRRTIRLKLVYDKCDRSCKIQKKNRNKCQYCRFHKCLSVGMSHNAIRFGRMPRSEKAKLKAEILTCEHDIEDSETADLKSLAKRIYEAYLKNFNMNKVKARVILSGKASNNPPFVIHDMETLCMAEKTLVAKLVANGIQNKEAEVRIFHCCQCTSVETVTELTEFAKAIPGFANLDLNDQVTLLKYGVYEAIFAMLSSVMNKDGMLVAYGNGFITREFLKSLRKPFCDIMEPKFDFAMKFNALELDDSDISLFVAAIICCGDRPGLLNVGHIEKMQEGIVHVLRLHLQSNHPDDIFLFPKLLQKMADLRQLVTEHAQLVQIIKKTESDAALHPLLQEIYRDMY

Sequence of CYP2E1 (P05181 whole entry): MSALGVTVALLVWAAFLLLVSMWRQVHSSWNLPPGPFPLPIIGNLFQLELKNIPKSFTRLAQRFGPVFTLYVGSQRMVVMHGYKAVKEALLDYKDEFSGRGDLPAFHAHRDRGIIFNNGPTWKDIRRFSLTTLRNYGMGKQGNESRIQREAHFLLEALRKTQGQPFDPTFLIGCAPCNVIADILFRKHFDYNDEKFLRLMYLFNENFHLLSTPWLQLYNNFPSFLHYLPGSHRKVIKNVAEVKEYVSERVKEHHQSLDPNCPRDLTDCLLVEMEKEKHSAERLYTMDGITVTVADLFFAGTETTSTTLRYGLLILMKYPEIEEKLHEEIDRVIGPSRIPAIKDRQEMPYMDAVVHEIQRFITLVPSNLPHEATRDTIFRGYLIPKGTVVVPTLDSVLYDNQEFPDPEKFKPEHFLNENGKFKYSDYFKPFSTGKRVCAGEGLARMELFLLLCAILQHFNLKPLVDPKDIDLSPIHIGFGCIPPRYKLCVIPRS

Row | Compound | incubation with recombinant human CYP2E1, metabolites by LC-MS/MS [1] | Kd [2] [µM]
1 | CCCCC/C=C\C/C=C\CCCCCCCC(=O)O [LCA, 9,12-linoleic acid] | metabolic sites on LCA by recombinant CYP2E1 protein were at C-6 to C-10, C-16, and C-17 | 23.8
2 | CCCCC/C=C\C/C=C\C/C=C\C/C=C\CCCC(=O)O [AA, arachidonic acid] | All the compounds were metabolized by recombinant CYP2E1 and their metabolites identified by LC–MS/MS | 16.1
3 | CC/C=C\C/C=C\C/C=C\C/C=C\C/C=C\C/C=C\CCC(=O)O [DHA, docosahexaenoic acid] | All the compounds were metabolized by recombinant CYP2E1 and their metabolites identified by LC–MS/MS | 14.3
